Experimental data reported in patent publication US8551453B2, “Aromatic triamide-lanthanide complexes” (The Regents of the University of California, priority 2003, dated 2013).

Assays:
Format in all cases: physicochemical
[1] = Protonation constants of the ligand by spectrophotometric titration; conditions: free ligand; for PKa: IAM
[2] = Stability constants of the Tb complex by spectrophotometric titration
Excerpt: (§1) The stability constants of the lanthanide complexes formed with the ligand H22TAMDIAM(9A) were estimated through spectrophotometric titrations.
(§2) The stability constants of the Eu and Tb complexes formed with the ligand H22TAMDIAM (9A) have been calculated form these experiments and the results are reported in the table.

[3] = Stability constants of the Eu complex by spectrophotometric titration
Experimental: FIG. 3 Spectrophotometric titration of a 1:1 ratio Eu:H22MeTIAM (9A): I=0.1, 25° C., optical path=1 cm.
as §1, §2

With H4H(2,2)TIAM [Compound 9A] the “Proton Affinity Log […]011” value ([1]; cumulative protonation constant, 1 proton (phenolic)) was 8.58(2), the “Proton Affinity Log […]012” value ([1]; cumulative protonation constant, 2 protons) was 15.17(3) and the “Proton Affinity Log […]013” value ([1]; cumulative protonation constant, 3 protons) was 20.38(4). For the same substance, the “Proton Affinity Log […]014” value ([1]; cumulative protonation constant, 4 protons) was 24.46(6), the PKa ([1]; first phenolic proton (line Log […]011)) was 8.58 and the PKa ([1]; fourth phenolic proton (line Log […]014)) was 4.08. The PKa ([1]; second phenolic proton (line Log […]012)) was 6.59, the PKa ([1]; third phenolic proton (line Log […]013)) was 5.21 and the “Log[…]11-1” value [2] was 12.60(7). The “Log[…]11-2” value [2] was 3.62(9), the “Log[…]110” value [2] was 17.85(3) and the pKa ([2]; line Log[…]11-1) was 5.25. The pKa ([2]; line Log[…]11-2) was 8.98, the pM ([2]; n = 3) was “Tb, pM = 19.7,n = 3” and the “Log[…]11-1” value ([3]; 1:1 Eu:ligand, I=0.1, 25° C.) was 11.04(2). For the same substance, the “Log[…]11-2” value ([3]; 1:1 Eu:ligand, I=0.1, 25° C.) was 1.98(10), the “Log[…]110” value ([3]; 1:1 Eu:ligand, I=0.1, 25° C.) was 17.29(1) and the pKa ([3]; line Log[…]11-1) was 6.25. For the same substance, the pKa ([3]; line Log[…]11-2) was 9.06 and the pM ([3]; n = 3) was “Eu, pM = 18.2, n = 3”.
